Patent US20190174760A1, “N-ALKYLSULFONYL CONDENSED HETEROCYCLIC COMPOUND OR SALT THEREOF, INSECTICIDE COMPRISING THE COMPOUND, AND METHOD FOR USING THE INSECTICIDE” (Nihon Nohyaku Co., Ltd., priority 2016, published 2019)

What was measured:
Plutella xylostella = test: Insecticidal test on Plutella xylostella (dip of Chinese cabbage seedlings with laid eggs); assay type: in vivo; details: 144 h, seedlings with laid eggs dipped about 30 seconds, 25° C., 6 days after dip treatment, read-out: insecticidal efficacy (corrected mortality rate) on Plutella xylostella
Text: Insecticidal Test on Plutella xylostella
Adults of Plutella xylostella were released onto Chinese cabbage seedlings and allowed to lay eggs thereon. At 2 days after the release of the adults, the Chinese cabbage seedlings with laid eggs were dipped for about 30 seconds in agrochemical formulations diluted to 500 ppm, each of which contained a different compound represented by the general formula (1) of the present invention as an active ingredient. After air-dried, the seedlings were kept in a thermostatic chamber at 25° C. At 6 days after the dip treatment, the number of hatched larvae per plot was counted, the mortality rate was calculated according to the formula shown below, and the insecticidal efficacy was evaluated according to the criteria of Test Example 2. This test was conducted in triplicate using 10 adults of Plutella xylostella per plot.
Corrected mortality rate (%)=100×(Number of hatched larvae in a non-treatment plot−Number of hatched larvae in a treatment plot)/Number of hatched larvae in a non-treatment plot [Math. 3]

Laodelphax striatellus = test: Insecticidal test on Laodelphax striatellus (rice seedling dip); assay type: in vivo; details: 192 h, rice seedlings dipped 30 seconds, 3rd-instar larvae, 8 days after inoculation, read-out: insecticidal efficacy (corrected mortality rate) on Laodelphax striatellus
Text: Insecticidal Test on Laodelphax striatellus
The compounds represented by the general formula (1) of the present invention or salts thereof were separately dispersed in water and diluted to 500 ppm. Rice plant seedlings (variety: Nihonbare) were dipped in the agrochemical dispersions for 30 seconds. After air-dried, each seedling was put into a separate glass test tube and inoculated with ten 3rd-instar larvae of Laodelphax striatellus, and then the glass test tubes were capped with cotton plugs. At 8 days after the inoculation, the numbers of surviving larvae and dead larvae were counted, the corrected mortality rate was calculated according to the formula shown below, and the insecticidal efficacy was evaluated according to the criteria shown below.
Corrected mortality rate (%)=100×(Survival rate in a non-treatment plot−Survival rate in a treatment plot)/Survival rate in a non-treatment plot [Math. 2]
A: the corrected mortality rate is 100%. B: the corrected mortality rate is 90 to 99%. C: the corrected mortality rate is 80 to 89%. D: the corrected mortality rate is 50 to 79%.

SMILES: CCS(=O)(=O)n1c(-c2nc3cc(C(F)(F)C(F)(F)F)nnc3n2C)cc2ccccc21 [Compound 1-33, 2-(1-ethylsulfonylindol-2-yl)-3-methyl-6-pentafluoroethyl-3H-imidazo[4,5-c]pyridazine]
- mortality at 500 ppm (Plutella xylostella): 100%
- mortality at 500 ppm (Laodelphax striatellus): 100%

SMILES: CCS(=O)(=O)n1c(-c2nc3cc(C(F)(F)C(F)(F)F)nnc3n2C)cc2ccc(F)cc21 [Compound 1-65, 2-(1-ethylsulfonyl-6-fluoroindol-2-yl)-3-methyl-6-pentafluoroethyl-3H-imidazo[4,5-c]pyridazine]
- mortality at 500 ppm (Plutella xylostella): 100%
- mortality at 500 ppm (Laodelphax striatellus): 100%

SMILES: CCS(=O)(=O)n1c(-c2nc3cc(C(F)(F)F)cnc3n2C)cc2cc(C(F)(F)F)ccc21 [Compound 2-11, 2-(1-ethylsulfonyl-5-trifluoromethylindol-2-yl)-3-methyl-6-trifluoromethyl-3H-imidazo[4,5-b]pyridine]
- mortality at 500 ppm (Plutella xylostella): 100%
- mortality at 500 ppm (Laodelphax striatellus): 100%

SMILES: CCS(=O)(=O)n1c(-c2nc3cc(SC(F)(F)F)ccc3o2)cc2ccccc21 [Compound 3-1, 2-(1-ethylsulfonylindol-2-yl)-5-trifluoromethylthiobenzo[d]oxazole]
- mortality at 500 ppm (Plutella xylostella): 100%
